Data from patent US20210145951A1, “COMPOSITIONS AND METHODS FOR SHARED NEO-EPITOPE VACCINES” (Epivax Oncology, Inc., priority 2019, published 2021).

Columns and labels:
CT26 tumor cells = experiment: CT26 tumor growth and survival after vaccination (Example 1); format: in vivo; details: CT26 in Balb/c mice
[1] = tested on: CT26 murine colon tumor cells; experiment: CT26 tumor growth with or without poly-ICLC (Example 13); format: in vivo, BALB/c mice; details: day 25 post-tumor implantation, relative to PBS or poly-ICLC alone
Method: The goal of this experiment was to determine the requirement for the inclusion of the adjuvant poly-ICLC in a peptide vaccine containing ANCER™ selected neoantigens. For this experiment, female BALB/c mice were implanted subcutaneously with 3×10^5 CT26 murine colon tumor cells. Tumor growth was monitored by caliper measurement and mice were sacrificed 45 days after tumor implantation or when tumor volumes reached 2000 mm^3, whichever came first.
Four vaccine groups were tested (n=10 mice/group):
Peptide vaccines were comprised of 20 different ANCER™ selected peptides at a concentration of 5 μg/peptide for a total dose of 100 μg peptide per immunization. Mice were immunized subcutaneously in the opposite flank from tumor implantation twice per week for three weeks, starting at day 4 post-tumor implantation.

In the case of poly-ICLC, the “mice reaching a tumor volume of at least 2,000 mm^3 (endpoint) by day 28” value (CT26 tumor cells; N=10) is reported as 60%, the “mice that survived past day 28” value (CT26 tumor cells; N=10) is reported as “Less than 50%” and the “mice that survived the 45 days of the experiment” value (CT26 tumor cells; N=10, in words) is reported as “None”. For the same substance, the “tumor burden compared to Group 1 (PBS)” value (CT26 tumor cells; sc injections days 5-26) was “no reduction in tumor burden” and the “control of tumor growth” value [1] was “no difference in tumor growth kinetics”.
